In brackets after ≈: the same amount, converted by molar mass. Where a name gives a salt, the structure may show the parent alone. Read-outs that look alike come from different tables or passages of the source.
Columns and labels:
[1] = test system: Bacillus subtilis/ATCC6633; assay: MIC, broth micro dilution assay (NCCLS); format: cell-based
Description: (§1) The serial broth dilution method used Mueller-Hinton medium except for the Streptococcus pneumoniae which was tested in 50% Mueller-Hinton medium and 50% Todd Hewitt medium. The final bacterial inoculate contained approximately 5×10^5 cfu/well and was run on microtiter plates. The volume of each well was 100 μL and the plates were incubated at 35° C. for 18 hours in ambient air. The MIC was defined as the lowest drug concentration that prevented visible growth.

[2] = test system: Moraxella catarrhalis/β-lactamase positive; assay: MIC, broth micro dilution assay (NCCLS); format: cell-based; conditions: strain A22344
Description: as §1

[3] = test system: Staphylococcus haemolyticus; assay: MIC, broth micro dilution assay (NCCLS); format: cell-based; conditions: strain A27298
Description: as §1

Staphylococcus aureus = assay: MIC, broth micro dilution assay (NCCLS); format: cell-based
Description: as §1

[4] = test system: Staphylococcus epidermidis; assay: MIC, broth micro dilution assay (NCCLS); format: cell-based; conditions: strain A24548
Description: as §1

Enterococcus faecium = assay: MIC, broth micro dilution assay (NCCLS); format: cell-based
Description: as §1

Enterococcus faecalis = assay: MIC, broth micro dilution assay (NCCLS); format: cell-based; conditions: strain A20688
Description: as §1

Streptococcus pneumoniae = assay: MIC, broth micro dilution assay (NCCLS); format: cell-based
Description: as §1

[5] = test system: Staphylococcus aureus A15090; assay: Systemic Staphylococcus aureus infection model; format: in vivo; conditions: female ICR mice infected IP with S. aureus A15090; compound SC at 1 and 4 hours post-infection
Description: Nocathiacin IV and nocathiacin IV 6-deoxyglucoside were evaluated for antibiotic activity in vivo, in a systemic infection model using female ICR mice. The animals were infected intraperitoneally (IP) with 6.5×10^6 CFU of an overnight culture of Staphylococcus aureus A15090 suspended in 7% mucin. The compound was dissolved in a test formulation consisting of 10% DMSO, 5% Tween 80 and 85% water. The solution was administered subcutaneously (SC) at 100 mg/kg total dose (2×50 mg/kg doses at 1 and 4 hours post-infection). The PD50 of nocathiacin IV was determined to be 1.07 mg/kg. The PD50 of nocathiacin IV 6-deoxyglucoside was determined to be 6.4 mg/kg.

[6] = 209P / ATCC 6538P, Staphylococcus aureus/209P/ATCC6538P, strain A9497
[7] = Staphylococcus aureus + 50% calf serum, strain A15090
[8] = Staphylococcus aureus + 50% calf serum, strain A27223
[9] = Staphylococcus aureus/homo methicillin resistant, strain A27223
[10] = Staphylococcus aureus/β lactamase positive, strain A15090
[11] = Enterococcus faecium/vancomycin resistant, strain A28142
[12] = Enterococcus faecalis + 50% calf serum
[13] = Enterococcus faecalis, read-out: MIC
[14] = Streptococcus pneumoniae, strain A9585, 50% Mueller-Hinton/50% Todd Hewitt medium
[15] = Streptococcus pneumoniae/penicillin intermediate, strain A27881
[16] = Streptococcus pneumoniae/penicillin resistant, strain A28272, read-out: MIC

Compound | MIC [1] | MIC [2] | MIC [3] | MIC (Staphylococcus aureus; [6]) | MIC (Staphylococcus aureus; [7]) | MIC (Staphylococcus aureus; [8]) | MIC (Staphylococcus aureus; [9]) | MIC (Staphylococcus aureus; [10]) | MIC [4] | MIC (Enterococcus faecium; [11]) | MIC (Enterococcus faecium; strain A24885) | MIC (Enterococcus faecalis; [12]) | MIC (Enterococcus faecalis; [13]) | MIC (Streptococcus pneumoniae; [14]) | MIC (Streptococcus pneumoniae; [15]) | MIC (Streptococcus pneumoniae; [16]) | PD50 [5]
CO/C(C)=C1/NC(=O)C(C(C)O)NC(=O)c2csc(n2)-c2cc(O)c(-c3nc(C(N)=O)cs3)nc2-c2csc(n2)C2COC(=O)c3c4c5c(cccc5n3O)COC(=O)C(OC3CC(C)(O)C(N(C)C)C(C)O3)C(OC4)C(NC(=O)c3csc1n3)c1nc(cs1)C(=O)N2 (stereo not shown) [Nocathiacin IV (HCI salt), nocathiacin IV] | 0.06 µg/mL | 0.25 µg/mL | 0.06 µg/mL | 0.03 µg/mL | 0.03 µg/mL | 0.03 µg/mL | 0.03 µg/mL | 0.03 µg/mL | 0.06 µg/mL | 0.03 µg/mL | 0.06 µg/mL | 0.03 µg/mL | 0.03 µg/mL | 0.001 µg/mL | 0.001 µg/mL | 0.001 µg/mL | –
CO/C(C)=C1/NC(=O)C(C(C)O)NC(=O)c2csc(n2)-c2cc(O)c(-c3nc(C(N)=O)cs3)nc2-c2csc(n2)C2COC(=O)c3c4c5c(cccc5n3O)COC(=O)C(OC3CC(C)(O)C(N(C)C)C(C)O3)C(OC4)C(NC(=O)c3csc1n3)c1nc(cs1)C(=O)N2 (stereo not shown) [nocathiacin IV] | – | – | – | – | – | – | – | – | – | – | – | – | – | – | – | – | 1.07 mg/kg
CO/C(C)=C1/NC(=O)C(C(C)O)NC(=O)c2csc(n2)-c2cc(OC3OC(C)C(O)C(O)C3O)c(-c3nc(C(N)=O)cs3)nc2-c2csc(n2)C2COC(=O)c3c4c5c(cccc5n3O)COC(=O)C(OC3CC(C)(O)C(N(C)C)C(C)O3)C(OC4)C(NC(=O)c3csc1n3)c1nc(cs1)C(=O)N2 (stereo not shown) [nocathiacin IV 6-deoxyglucoside] | 0.5 µg/mL (≈ 0.33 µM) | 2 µg/mL (≈ 1.32 µM) | 0.5 µg/mL (≈ 0.33 µM) | 0.5 µg/mL (≈ 0.33 µM) | 0.25 µg/mL | 0.25 µg/mL | 0.5 µg/mL (≈ 0.33 µM) | 0.5 µg/mL (≈ 0.33 µM) | 0.25 µg/mL (≈ 0.165 µM) | 0.5 µg/mL (≈ 0.33 µM) | 0.5 µg/mL (≈ 0.33 µM) | 0.25 µg/mL | 0.25 µg/mL (≈ 0.165 µM) | 0.03 µg/mL (≈ 0.0198 µM) | 0.03 µg/mL (≈ 0.0198 µM) | 0.03 µg/mL (≈ 0.0198 µM) | 6.4 mg/kg
